Experimental data published in ChEMBL document CHEMBL4177586, “Small molecule adjuvants that suppress both chromosomal and mcr-1 encoded colistin-resistance and amplify colistin efficacy in polymyxin-susceptible bacteria” (Bioorg Med Chem, 2017).
Converted amounts (≈) assume the structure as drawn.

What was measured:
Klebsiella pneumoniae [1] = experiment: Toxicity against Klebsiella pneumoniae 2210291 expressing mcr1 gene incubated for overnight duration by CLSI based method; format: organism-based; details: in vivo
Acinetobacter baumannii [2] = experiment: Toxicity against multidrug resistant Acinetobacter baumannii 5075 incubated for overnight duration by CLSI based method; format: organism-based; details: in vivo
Acinetobacter baumannii [3] = experiment: Potentiation of colistin-induced antimicrobial activity against Acinetobacter baumannii ATCC 17978 expressing mcr1 gene assessed as colistin MIC at 15 uM incubated for overnight duration by CLSI based method (reference value: 16 ug/ml); format: functional
Acinetobacter baumannii [4] = experiment: Potentiation of colistin-induced antimicrobial activity against Acinetobacter baumannii SM1536 expressing mcr1 gene assessed as colistin MIC at 15 uM incubated for overnight duration by CLSI based method (reference value: 64 ug/ml); format: functional
Acinetobacter baumannii [5] = experiment: Potentiation of colistin-induced antimicrobial activity against Acinetobacter baumannii ATCC 17978 expressing mcr1 gene assessed as reduction in colistin MIC at 30 uM incubated for overnight duration by CLSI based method relative to colistin alone control; format: functional
Acinetobacter baumannii [6] = experiment: Toxicity against Acinetobacter baumannii ATCC 17978 incubated for overnight duration by CLSI based method; format: organism-based; details: in vivo
Acinetobacter baumannii [7] = experiment: Potentiation of colistin-induced antimicrobial activity against Acinetobacter baumannii ATCC 17978 assessed as reduction in colistin MIC at 30 uM incubated for overnight duration by CLSI based method relative to colistin alone control; format: functional
Escherichia coli [8] = experiment: Potentiation of colistin-induced antimicrobial activity against Escherichia coli YD626 assessed as reduction in colistin MIC at 30 uM incubated for overnight duration by CLSI based method relative to colistin alone control; format: functional
Acinetobacter baumannii [9] = experiment: Toxicity against Acinetobacter baumannii ATCC 17978 expressing mcr1 gene incubated for overnight duration by CLSI based method; format: organism-based; details: in vivo
Acinetobacter baumannii [10] = experiment: Toxicity against Acinetobacter baumannii SM1536 expressing mcr1 gene incubated for overnight duration by CLSI based method; format: organism-based; details: in vivo
Escherichia coli [11] = experiment: Toxicity against Escherichia coli ATCC 25922 expressing mcr1 gene incubated for overnight duration by CLSI based method; format: organism-based; details: in vivo
Escherichia coli [12] = experiment: Toxicity against Escherichia coli YD626 expressing mcr1 gene incubated for overnight duration by CLSI based method; format: organism-based; details: in vivo
Acinetobacter baumannii [13] = experiment: Toxicity against multidrug resistant Acinetobacter baumannii BAA1605 incubated for overnight duration by CLSI based method; format: organism-based; details: in vivo
Acinetobacter baumannii [14] = experiment: Potentiation of colistin-induced antimicrobial activity against Acinetobacter baumannii ATCC 17978 expressing mcr1 gene assessed as colistin MIC at 60 uM incubated for overnight duration by CLSI based method (reference value: 16 ug/ml); format: functional
Escherichia coli [15] = experiment: Potentiation of colistin-induced antimicrobial activity against Escherichia coli ATCC 25922 expressing mcr1 gene assessed as colistin MIC at 60 uM incubated for overnight duration by CLSI based method (reference value: 8 ug/ml); format: functional
Escherichia coli [16] = experiment: Potentiation of colistin-induced antimicrobial activity against Escherichia coli YD626 expressing mcr1 gene assessed as colistin MIC at 60 uM incubated for overnight duration by CLSI based method (reference value: 4 ug/ml); format: functional
Klebsiella pneumoniae [17] = experiment: Potentiation of colistin-induced antimicrobial activity against Klebsiella pneumoniae 2210291 expressing mcr1 gene assessed as colistin MIC at 60 uM incubated for overnight duration by CLSI based method (reference value: 16 ug/ml); format: functional
Acinetobacter baumannii [18] = experiment: Potentiation of colistin-induced antimicrobial activity against Acinetobacter baumannii SM1536 expressing mcr1 gene assessed as reduction in colistin MIC at 60 uM incubated for overnight duration by CLSI based method relative to colistin alone control; format: functional
Klebsiella pneumoniae [19] = experiment: Potentiation of colistin-induced antimicrobial activity against Klebsiella pneumoniae 2210291 expressing mcr1 gene assessed as reduction in colistin MIC at 60 uM incubated for overnight duration by CLSI based method relative to colistin alone control; format: functional
Acinetobacter baumannii [20] = experiment: Potentiation of colistin-induced antimicrobial activity against colistin-resistant Acinetobacter baumannii PM3941 assessed as colistin MIC at 60 uM incubated for overnight duration by CLSI based method (reference value: 512 ug/ml); format: functional
Acinetobacter baumannii [21] = experiment: Potentiation of colistin-induced antimicrobial activity against colistin-resistant Acinetobacter baumannii PM3942 assessed as colistin MIC at 60 uM incubated for overnight duration by CLSI based method (reference value: 512 ug/ml); format: functional
Acinetobacter baumannii [22] = experiment: Potentiation of colistin-induced antimicrobial activity against colistin-resistant Acinetobacter baumannii PM4119 assessed as colistin MIC at 60 uM incubated for overnight duration by CLSI based method (reference value: 1024 ug/ml); format: functional
Klebsiella pneumoniae [23] = experiment: Potentiation of colistin-induced antimicrobial activity against colistin-resistant Klebsiella pneumoniae C3 assessed as colistin MIC at 60 uM incubated for overnight duration by CLSI based method (reference value: 512 ug/ml); format: functional
Acinetobacter baumannii [24] = experiment: Potentiation of colistin-induced antimicrobial activity against colistin-resistant Acinetobacter baumannii PM3942 assessed as colistin MIC at 30 uM incubated for overnight duration by CLSI based method (reference value: 512 ug/ml); format: functional
Acinetobacter baumannii [25] = experiment: Potentiation of colistin-induced antimicrobial activity against colistin-resistant Acinetobacter baumannii PM4119 assessed as colistin MIC at 30 uM incubated for overnight duration by CLSI based method (reference value: 1024 ug/ml); format: functional
Acinetobacter baumannii [26] = experiment: Potentiation of colistin-induced antimicrobial activity against colistin-resistant Acinetobacter baumannii PM3941 assessed as colistin MIC at 15 uM incubated for overnight duration by CLSI based method (reference value: 512 ug/ml); format: functional
Acinetobacter baumannii [27] = experiment: Potentiation of colistin-induced antimicrobial activity against colistin-resistant Acinetobacter baumannii PM3942 assessed as colistin MIC at 15 uM incubated for overnight duration by CLSI based method (reference value: 512 ug/ml); format: functional
Acinetobacter baumannii [28] = experiment: Potentiation of colistin-induced antimicrobial activity against colistin-resistant Acinetobacter baumannii PM4119 assessed as colistin MIC at 15 uM incubated for overnight duration by CLSI based method (reference value: 1024 ug/ml); format: functional
Klebsiella pneumoniae [29] = experiment: Potentiation of colistin-induced antimicrobial activity against colistin-resistant Klebsiella pneumoniae C3 assessed as colistin MIC at 15 uM incubated for overnight duration by CLSI based method (reference value: 512 ug/ml); format: functional
Klebsiella pneumoniae [30] = experiment: Potentiation of colistin-induced antimicrobial activity against colistin-resistant Klebsiella pneumoniae C3 assessed as reduction in colistin MIC at 30 uM incubated for overnight duration by CLSI based method relative to colistin alone control; format: functional
Klebsiella pneumoniae [31] = experiment: Potentiation of colistin-induced antimicrobial activity against colistin-resistant Klebsiella pneumoniae C5 assessed as reduction in colistin MIC at 30 uM incubated for overnight duration by CLSI based method relative to colistin alone control; format: functional
Acinetobacter baumannii [32] = experiment: Potentiation of colistin-induced antimicrobial activity against colistin-resistant Acinetobacter baumannii PM3941 assessed as reduction in colistin MIC at 15 uM incubated for overnight duration by CLSI based method relative to colistin alone control; format: functional
Klebsiella pneumoniae [33] = experiment: Potentiation of colistin-induced antimicrobial activity against colistin-resistant Klebsiella pneumoniae C3 assessed as reduction in colistin MIC at 15 uM incubated for overnight duration by CLSI based method relative to colistin alone control; format: functional
Klebsiella pneumoniae [34] = experiment: Potentiation of colistin-induced antimicrobial activity against colistin-resistant Klebsiella pneumoniae C5 assessed as reduction in colistin MIC at 15 uM incubated for overnight duration by CLSI based method relative to colistin alone control; format: functional

CCCCCCc1ccc(-c2cn(CC)c(N)n2)cc1
MIC (Klebsiella pneumoniae [1]): > 200 µM
MIC (Acinetobacter baumannii [2]): 200 µM (≈ 54.3 µg/mL)
MIC (Acinetobacter baumannii [3]): 4 µg/mL
MIC (Acinetobacter baumannii [4]): 8 µg/mL
fold change (FC) (Acinetobacter baumannii [5]): 32
MIC (Acinetobacter baumannii [6]): 100 µM (≈ 27.1 µg/mL)
fold change (FC) (Acinetobacter baumannii [7]): 512
fold change (FC) (Escherichia coli [8]): 2048
MIC (Acinetobacter baumannii [9]): > 200 µM
MIC (Acinetobacter baumannii [10]): > 200 µM
MIC (Escherichia coli [11]): 50 µM (≈ 13.6 µg/mL)
MIC (Escherichia coli [12]): 100 µM (≈ 27.1 µg/mL)
MIC (Acinetobacter baumannii [13]): 200 µM (≈ 54.3 µg/mL)

CCCCCCc1ccc(-c2cn(C(C)C)c(N)n2)cc1
MIC (Klebsiella pneumoniae [1]): > 200 µM
MIC (Acinetobacter baumannii [3]): 4 µg/mL
MIC (Acinetobacter baumannii [4]): 8 µg/mL
fold change (FC) (Acinetobacter baumannii [5]): 32
MIC (Acinetobacter baumannii [6]): 200 µM (≈ 57.1 µg/mL)
fold change (FC) (Acinetobacter baumannii [7]): 128
fold change (FC) (Escherichia coli [8]): 2048
MIC (Acinetobacter baumannii [9]): > 200 µM
MIC (Acinetobacter baumannii [10]): > 200 µM
MIC (Escherichia coli [11]): > 200 µM
MIC (Escherichia coli [12]): > 200 µM

CCCCCc1ccc(C(=O)NCCn2cc(CCCCCc3cnc(N)n3Cc3ccc(CCCC)cc3)nn2)cc1
MIC (Acinetobacter baumannii [3]): 2 µg/mL
MIC (Acinetobacter baumannii [4]): 8 µg/mL
fold change (FC) (Acinetobacter baumannii [5]): 32
MIC (Acinetobacter baumannii [6]): > 200 µM
MIC (Acinetobacter baumannii [14]): 0.25 µg/mL
MIC (Escherichia coli [15]): 0.031 µg/mL
MIC (Escherichia coli [16]): < 0.002 µg/mL
MIC (Klebsiella pneumoniae [17]): 0.125 µg/mL
fold change (FC) (Acinetobacter baumannii [18]): 64
fold change (FC) (Klebsiella pneumoniae [19]): 128
MIC (Acinetobacter baumannii [20]): 8 µg/mL
MIC (Acinetobacter baumannii [21]): 4 µg/mL
MIC (Acinetobacter baumannii [22]): 2 µg/mL
MIC (Klebsiella pneumoniae [23]): 8 µg/mL
MIC (Acinetobacter baumannii [24]): 16 µg/mL
MIC (Acinetobacter baumannii [25]): 4 µg/mL
MIC (Acinetobacter baumannii [26]): 32 µg/mL
MIC (Acinetobacter baumannii [27]): 32 µg/mL
MIC (Acinetobacter baumannii [28]): 16 µg/mL
MIC (Klebsiella pneumoniae [29]): 64 µg/mL
fold change (FC) (Klebsiella pneumoniae [30]): 32
fold change (FC) (Klebsiella pneumoniae [31]): 32
fold change (FC) (Acinetobacter baumannii [32]): 16
fold change (FC) (Klebsiella pneumoniae [33]): 8
fold change (FC) (Klebsiella pneumoniae [34]): 4
fold change (FC) (Acinetobacter baumannii [7]): >2048
fold change (FC) (Escherichia coli [8]): >2048
